The test system of assay [1] is nontransformed tobacco leaf AK. Briefly: AK activity with lysine and/or threonine, leaf extracts of nontransformed tobacco. The format is biochemical. As to conditions: 10 mM lysine, threonine or both; nontransformed (wild type) tobacco leaf extract. How it is done: (§1) Transgenic plants were screened for an elevated AK activity. AK activity was assayed in crude extracts from leaves of transgenic plants by the method of Black and Wright (Black, S., et al. (1955) J. Biol. Chem. 213: 27-38). Leaves from axenic tobacco plants grown on Nitsch minimal medium (Nitsch, J. P. (1969) Phytomorphology 19: 389-404) in Magenta boxes for about one month were homogenized with a mortar and pestle in an equal volume of cold 20 mM potassium phosphate buffer pH 7.0 containing 30 mM β-mercaptoethanol, 0.1 mM L-lysine, 0.1 mM L-threonine, 1 mM phenylmethylsulfonilfluoride and 0.5 mM leupeptin. Following 5 min centrifugation (16,000 .g, 4° C.) the supernatant was collected and its protein concentration was determined by the method of Bradford (Bradford, M. M. (1976) Anal. Biochem. 72: 248-254). Equal amounts of protein were then tested for AK activity. […] The reaction mixture was stopped by addition of 0.25 ml of a 1:1:1 mixture of 10% FeCl3 in 0.1M HCl, 3M HCl and 12% TCA, centrifuged and the optical absorbance of the supernatant at 490 nm was measured.
(§2) AK activity was measured in crude extracts prepared from tobacco leaves as above except that 10 mM lysine, threonine or both amino acids were present in the reaction mixture as indicated on the right. […]

Assay [2] has as its target T1, E. coli mutated, desensitized AK (Escherichia coli, UniProt P08660).
T1 construct: transgenic tobacco plant E-6, crude leaf extract
Put plainly: AK activity with lysine and/or threonine, leaf extracts of transgenic plant E-6. Format: biochemical. To be noted: 10 mM lysine, threonine or both; transgenic plant E-6 (mutant bacterial enzyme). The protocol:
as §1, §2

Assay [3] deals with tobacco shoots (control and transgenic plant B-7). Put plainly: Resistance of tobacco shoots to aminoethylcysteine (AEC). Format: in vivo. As to conditions: 0.1 and 0.15 mM AEC in MS medium; transgenic B-7 (E. coli DHPS) vs control. The protocol: To test whether the transgenic tobacco plants expressing the E. coli DHPS gene were more resistant to the lysine analog AEC compared to control nontransformed plants, shoots from control plants (FIG. 21, left) and from transgenic tobacco plant B-7 (FIG. 21, right) were dipped in MS medium containing 2 mg/l kinetin, 0.8 mg/l IAA and either 0, 0.1, 0.15 or 0.2 mM AEC.

A further assay has as its target T2, DHPS (Nicotiana tabacum, UniProt Q42948).
T2 construct: from tissue; host or cells: leaves of nontransformed tobacco (crude extract)
T2 sequence (Q42948 34-359): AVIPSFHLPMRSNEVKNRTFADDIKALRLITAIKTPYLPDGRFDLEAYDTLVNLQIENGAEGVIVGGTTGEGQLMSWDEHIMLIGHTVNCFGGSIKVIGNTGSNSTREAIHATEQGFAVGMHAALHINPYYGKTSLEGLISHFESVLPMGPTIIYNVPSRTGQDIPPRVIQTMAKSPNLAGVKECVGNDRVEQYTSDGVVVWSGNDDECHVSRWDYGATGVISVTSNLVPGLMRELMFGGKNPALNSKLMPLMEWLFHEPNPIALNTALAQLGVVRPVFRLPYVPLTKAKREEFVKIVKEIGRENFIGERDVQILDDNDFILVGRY
Put plainly: DHPS activity (O-ABA assay) with increasing lysine, leaf extracts of control nontransformed tobacco. Format: biochemical. How it is done:
(§3) Transgenic plants were screened for an elevated DHPS activity. DHPS activity was assayed in crude extracts from leaves of transgenic plants by the O-amino-benzaldehyde (O-ABA) assay of Yugari and Gilvarg (Yugari Y. and Gilvarg C., (1965) J. Biol. Chem. 240: 4710-4716) with slight modifications. Leaves from axenic tobacco plants grown in culture were homogenized with a mortar and pestle in an equal volume of cold 100 mM Tris-HCl pH 7.5 containing 1 mM phenylmethylsulfonylfluoride and 0.5 μg/ml leupeptine. Following 5 min centrifugation (16,000 xg, 4° C.) the supernatant was collected and its protein concentration was determined by the method of Bradford.
(§4) DHPS activity was assayed as above but in the presence of increasing lysine concentrations. At each lysine concentration, DHPS activity is presented as a percentage of the activity in extracts with no lysine added (average of two plants for each transformation). (Control)--nontransformed plants; (Cytoplasm)--average DHPS activity of plants A-11 and A-22 containing the cytoplasmic-type E. coli DHPS; (Chloroplast)--average DHPS activity of plants B-7 and B-15 containing the chloroplastic-type E. coli DHPS. The elevated levels of DHPS activity in the transgenic plants clearly resulted from the expression of the E. coli enzyme in them. […] In contrast, the I50 for DHPS inhibition by lysine in the control nontransformed plants was 27 μM.

In assay [4] the test system is E. coli DHPS. Briefly: DHPS activity (O-ABA assay) with increasing lysine, leaf extracts of transgenic tobacco expressing E. coli DHPS. To be noted: transgenic vs wild type/control plants. The format is biochemical. How it is done: as §3, §4
In the next assay the test system is plant DHPSs. As to conditions: plant DHPS; read-out: I50 of plant DHPSs, lysine; cited from earlier work.
For assay [5], the target named is T3, E. coli DHPS (Escherichia coli, UniProt P0A6L2). To be noted: cited from earlier work.
Assay [6] deals with T3, E. coli DHPS. Briefly: DHPS activity (O-ABA assay) with increasing lysine, leaf extracts of transgenic tobacco expressing E. coli DHPS. Format: biochemical. Further details: pea rbcS-3A chloroplast transit peptide (chloroplastic type only; absent in the cytoplasmic type) (N); expressed in transfected cells; host or cells: transgenic tobacco plants (crude leaf extract; A-11 and A-22 cytoplasmic type, B-7 and B-15 chloroplastic type). The protocol:
as §3, §4

We go through three compounds from patent publication US5367110A, “Transgenic plants overproducing threonine and lysine” (Yeda Research and Development Co. Ltd., priority 1990, dated 1994).

Each structure is given as a SMILES string. Entries after “also recorded” stand apart in the source; their conditions may differ. Read-outs that look alike come from different tables or passages of the source.

T3 sequence (P0A6L2 whole entry): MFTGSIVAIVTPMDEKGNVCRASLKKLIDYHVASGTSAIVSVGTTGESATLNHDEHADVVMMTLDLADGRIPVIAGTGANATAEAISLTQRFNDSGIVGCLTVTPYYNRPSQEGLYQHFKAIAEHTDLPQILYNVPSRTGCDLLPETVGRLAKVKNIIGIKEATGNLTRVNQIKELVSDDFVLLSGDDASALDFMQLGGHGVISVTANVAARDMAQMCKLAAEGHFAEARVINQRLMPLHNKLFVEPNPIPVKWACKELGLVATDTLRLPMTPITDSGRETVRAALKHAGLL
T1 sequence (P08660 2-449, change not shown): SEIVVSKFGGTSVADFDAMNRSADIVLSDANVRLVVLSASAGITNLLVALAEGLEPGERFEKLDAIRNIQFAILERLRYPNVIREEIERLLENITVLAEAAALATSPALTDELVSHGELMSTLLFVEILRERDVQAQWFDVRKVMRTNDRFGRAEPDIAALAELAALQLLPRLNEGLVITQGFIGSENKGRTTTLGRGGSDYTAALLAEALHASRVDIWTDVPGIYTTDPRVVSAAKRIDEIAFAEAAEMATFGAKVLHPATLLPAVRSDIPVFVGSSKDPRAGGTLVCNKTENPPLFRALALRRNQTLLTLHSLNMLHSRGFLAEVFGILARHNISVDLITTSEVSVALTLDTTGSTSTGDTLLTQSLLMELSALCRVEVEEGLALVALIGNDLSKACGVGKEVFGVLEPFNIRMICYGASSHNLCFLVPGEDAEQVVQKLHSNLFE

For `C[C@@H](O)[C@H](N)C(=O)O` [threonine], the “inhibition of AK activity” value in assay [1] was 70%; in assay [2], “completely resistant; also recorded: completely unaffected”.

`NCCSC[C@H](N)C(=O)O` [AEC, S-(2-aminoethyl)-L-cysteine]: in assay [3], the “growth of transgenic shoots compared with control in AEC medium” value is “the transgenic plant clearly grows better than the control; also recorded: much less sensitive”.

For the compound `NCCCC[C@H](N)C(=O)O` [lysine], the IC50 against DHPS was 27 µM; with plant DHPSs it was 10 to 50 µM; on E. coli DHPS [5] (read-out: I50 of E. coli DHPS, lysine, E. coli DHPS) it was about 1000 µM; at E. coli DHPS [5] (read-out: of E. coli DHPS, lysine inhibition, E. coli DHPS (dapA)), 1000 µM; on E. coli DHPS [6] (transgenic tobacco plants, crude leaf extract, read-out: I50 for DHPS inhibition by lysine), 1600 µM. Also, in the assay on E. coli DHPS [4], the “sensitivity of DHPS activity in transgenic plants to lysine inhibition compared with control plants” value was “less sensitive to lysine inhibition; also recorded: much more resistant to feedback inhibition”. Besides, the “inhibition of AK activity” value in assay [2] is given as “completely resistant; also recorded: completely unaffected”. Besides, the inhibition (commonly how much of the control response was suppressed) at 1000 µM at E. coli DHPS [6] (1 mM lysine, read-out: inhibition of bacterial DHPS) was about 50%.
